Assay results from patent US20240416143A1, “PHOTONIC ANTIMICROBIAL WOUND SURFACE DRESSING” (The General Hospital Corporation, priority 2021, published 2024).

Assays:
[1] = Solubility of menadione in aqueous solution; assay type: physicochemical
Protocol: Thus, we dissolved the menadione in two conditions: in PBS containing either 1% DMSO or 1% DMSO/Tween80 at 400 μM. Tween 80 is a surfactant and the idea is to mix with the DMSO before to add to PBS is due to necessity to improve the solubility of menadione in aqueous solution. We measured the absorption spectrum in both conditions to analyze if there is any change in optical properties. The range of wavelength absorption of menadione was measured between 200-800 nm (see FIG. 12B) to choose the optimum wavelength of the light absorption spectra. […] The maximum wavelength of absorption found was 340 nm for both conditions. […] The molar absorptivity coefficient was compared in different wavelength according with the Table 1.

MRSA [2] = test: Photoinactivation of planktonic cultures by menadione + antimicrobial blue light; assay type: cell-based, methicillin-resistant Staphylococcus aureus; conditions: menadione ⅛ MIC + aBL 90 J/cm^2 (50 mW/cm^2), 405 nm
Protocol: (§1) The bacterial cells were grown in BHI broth medium shaken overnight. Cells were collected by centrifugation at 4,000 rpm for 5 minutes and suspended in PBS at a density of 10^8 colony-forming units (CFU)/mL (estimated by measuring the optical density at 600 nm; O.D 0.1=10^8 cells/mL). The microbial suspension in PBS was transferred to a 35×12-mm dish and mixed with different concentrations of menadione: 0, 0.5, 1 and 2 μg/mL for MRSA USA300, AF003 and IQ0064; 0, 1, 10 and 30 μg/mL for P. aeruginosa PA01; and 0, 16, 32, 64 and 128 μg/mL for E. coli ATCC 25922. After incubation in the dark at 25° C. for 1 hour, the planktonic suspension of cells at room temperature was irradiated using aBL (405 nm) at 50 mW/cm^2 with different radiant exposures (0-250 J/cm^2). During the aBL irradiation, 40 μL of samples were withdrawn every 15 minutes, and the CFUs were determined by 10-fold serial dilutions in PBS (10-1 to 10-7 dilution factors), plated on BHI agar plates as described previously [Ref. 17]. CFUs were counted after overnight incubation at 37° C. Experiments were performed in triplicate.

MRSA [3] = test: Hydroxyl radical assay (HPF) in bacteria; assay type: cell-based, methicillin-resistant Staphylococcus aureus; conditions: 10 μg/mL menadione, 135 J/cm^2
Protocol: 1.2.9.3 Hydroxyl radical HO′ assay: The hydroxyl radical was measured by 3′-(p-hydroxyphenyl) fluorescein (HPF) (Thermofisher). HPF is a new fluorescein derivative, and it is nonfluorescent until reacted with the hydroxyl radical or peroxynitrite anion. The MRSA were grown in BHI broth medium with shaking overnight. Cells were collected by centrifugation at 4,000 rpm for 5 minutes and resuspended in PBS in the stationary growth phase culture of 1×10^8 CFU/mL. The microbial suspension was transferred to a 35×12-mm dish, mixed with 10 μg/mL of menadione, and stained with 10 μM HPF solution per the manufacturer's instruction. The bacteria were irradiated with the blue light at 50 mW/cm^2 and the samples were collected each 15 minutes to be analyzed by Microplate Spectrofluorometer (SPECTRAmax®, Molecular Devices, USA) at λex=490 nm and λem=515 nm. The control and the menadione/dark groups were generated under the same conditions without irradiation.

P. aeruginosa = test: Photoinactivation of planktonic cultures by menadione + antimicrobial blue light; assay type: cell-based, Pseudomonas aeruginosa PA01; conditions: menadione ⅛ MIC + aBL 90 J/cm^2 (50 mW/cm^2), 405 nm
Protocol: as §1

P. aeruginosa biofilm = test: Photoinactivation of 48-hour in vitro biofilms by adjuvant/antibiotic + antimicrobial blue light; assay type: cell-based, Pseudomonas aeruginosa
Protocol: The bacterial suspension was grown in a shaking incubator overnight in BHI broth. Cells were collected by centrifugation at 4,000 rpm for 5 minutes and suspended in PBS at a density of 10^6 CFU/mL. Then, the biofilms were grown for 48 hours (unless otherwise specified) in 96-well microtiter plates as described previously [Ref. 27], with a renewal of the media every 24 hours. Following the 48-hour biofilm growth, fresh 200 μL of PBS with or without menadione in different concentrations were added to the wells and the biofilms were incubated in the dark at 25° C. for 1 hour: 0, 0.5, 1, and 2 μg/mL for MRSA USA300, AF0001, IQ0064; […]; and 0, 100, and 150 μg/mL for E. coli ATCC 25922. After that, the control and the menadione-treated biofilms were maintained without irradiation (“menadione/dark”). Simultaneously, the aBL was delivered to the other biofilm groups testing different power densities (50, 30, 15, and 10 mW/cm^2) while keeping the same radiant exposure of 250 J/cm^2. After the light exposure, the biofilms were carefully washed two times with PBS and 200 μL of PBS was added to each well. Then, the bacterial biofilms in each well were harvested by scratching with a sterile pipette tip and three wells of each group were pooled together in a 1.5 mL microcentrifuge tube. The total volume obtained, 600 μL (3 wells), was sonicated using a Branson 2510 Water Bath Sonicator (Marshall Scientific, LLC) for 5 minutes and the CFU was determined by 10-fold serial dilutions in PBS on BHI agar plates. CFU was counted after overnight incubation at 37° C. Experiments were performed in triplicate.
A bacterial suspension was grown in a shaking incubator overnight in BHI broth. Cells were collected by centrifugation at 4,000 rpm for 5 minutes and suspended in PBS at a density of 10^6 CFU/mL. Then, the biofilms were grown for 48 hours in 96-well microtiter plates with a renewal of the media every 24 hours. Following the 48-hour biofilm growth, fresh 200 μL of PBS with the tetracyclines minocycline, doxycycline, and demeclocycline in different concentrations were added to the wells and the biofilms were incubated in the dark at 25° C. for 1 hour: 0, 0.25, 0.5, and 1 μg/mL for minocycline; 0, 0.5, 1, and 2 μg/mL for doxycycline; and 0, 0.5, 1, and 2 for demeclocycline. After that, the control and the tetracycline-treated biofilms were maintained without irradiation (“menadione/dark”). […] The total volume obtained, 600 μL (3 wells), was sonicated using a Branson 2510 Water Bath Sonicator (Marshall Scientific, LLC) for 5 minutes and the CFU/mL was determined by 10-fold serial dilutions in PBS on BHI agar plates. CFU was counted after overnight incubation at 37° C.

NLRP3 inflammasome = NLRP3 inflammasome (Homo sapiens, UniProt Q96P20); conditions: cited from earlier work
Sequence of NLRP3 inflammasome (Q96P20 whole entry): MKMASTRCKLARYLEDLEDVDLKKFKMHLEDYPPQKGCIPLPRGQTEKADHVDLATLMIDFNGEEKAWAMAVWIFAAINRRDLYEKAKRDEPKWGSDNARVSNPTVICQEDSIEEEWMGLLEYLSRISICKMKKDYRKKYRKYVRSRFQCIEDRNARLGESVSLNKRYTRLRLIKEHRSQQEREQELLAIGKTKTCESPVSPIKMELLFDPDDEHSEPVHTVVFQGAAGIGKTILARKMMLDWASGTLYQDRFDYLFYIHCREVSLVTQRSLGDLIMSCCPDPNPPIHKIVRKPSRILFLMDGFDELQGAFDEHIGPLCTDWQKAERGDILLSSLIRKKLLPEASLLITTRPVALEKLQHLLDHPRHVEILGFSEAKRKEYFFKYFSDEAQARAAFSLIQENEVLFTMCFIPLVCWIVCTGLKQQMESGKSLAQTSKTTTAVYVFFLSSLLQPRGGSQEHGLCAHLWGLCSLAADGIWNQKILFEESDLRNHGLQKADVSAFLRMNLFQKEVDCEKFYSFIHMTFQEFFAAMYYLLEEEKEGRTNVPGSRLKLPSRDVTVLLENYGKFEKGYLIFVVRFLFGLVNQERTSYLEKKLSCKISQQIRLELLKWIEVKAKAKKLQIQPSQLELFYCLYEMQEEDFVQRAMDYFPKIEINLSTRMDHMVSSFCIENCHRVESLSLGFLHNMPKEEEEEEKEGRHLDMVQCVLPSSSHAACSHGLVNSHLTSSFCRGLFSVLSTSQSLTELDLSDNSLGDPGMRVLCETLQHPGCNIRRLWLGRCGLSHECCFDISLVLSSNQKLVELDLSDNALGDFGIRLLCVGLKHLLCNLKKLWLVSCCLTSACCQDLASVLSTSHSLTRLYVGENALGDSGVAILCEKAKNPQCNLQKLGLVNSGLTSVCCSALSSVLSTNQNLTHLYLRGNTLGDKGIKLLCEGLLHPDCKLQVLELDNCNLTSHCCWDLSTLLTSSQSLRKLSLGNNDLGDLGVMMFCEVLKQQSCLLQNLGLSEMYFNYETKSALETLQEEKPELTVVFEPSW

CC1=CC(=O)c2ccccc2C1=O [menadione, 2-methyl-1,4-naphthoquinone]
solubility in aqueous solution ([1]; PBS with 1% DMSO/Tween80 vs 1% DMSO): best solubility | solubility in water ([1]; water): not soluble in water | eradication by aBL combined with menadione (MRSA [2]): 4.59 log10 CFU/mL | hydroxyl radical (HPF), menadione+aBL vs aBL alone (MRSA [3]): 1.77 times | eradication by aBL combined with menadione (P. aeruginosa): 4.54 log10 CFU/mL | biofilm reduction by menadione without irradiation (P. aeruginosa biofilm; 48 h biofilm, dark): < 1 log killing | biofilm eradicated by menadione plus aBL (P. aeruginosa biofilm; 48 h biofilm, 100 μg/mL menadione + aBL 250 J/cm^2 (50 mW/cm^2)): 6.6 log10 CFU/mL | potentiation of the effect of aBL by menadione (P. aeruginosa biofilm; 48 h in vitro biofilm, vs aBL alone): ~100 fold | inhibition of NLRP3 inflammasome (NLRP3 inflammasome): selective, potent inhibitor
